Where a name gives a salt, the structure may show the parent alone.
How the values were obtained:
[1] = target: T1, proton pump (H+/K+-ATPase) (Sus scrofa, UniProt P19156); test: Measurement of inhibitory effects on proton pump (H+/K+-ATPase) activities; assay type: biochemical; conditions: hog gastric vesicles, K+-specific H+/K+-ATPase activity, Tris-HCl buffer pH 7.4, 37° C. for 40 minutes, malachite green Pi readout
T1 construct: Gastric vesicles were prepared from hog stomach via centrifugal separation; from tissue; host or cells: hog stomach (gastric vesicles, method of Rabon et al. 1988)
Method in brief: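 Hog gastric vesicles in 60 mmol/l Tris-HCl pH 7.4 with 0.5% DMSO were treated with compounds at room temperature; reaction was started with 10 μl of 10 mmol/l ATP stock. Released Pi was read at 570 nm, K+-specific activity taken as the ±K+ difference. IC50 from 4-parameter logistic fit.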

[2] = tested on: basal gastric acid secretion; test: Inhibitory effect on the basal gastric acid secretion in pylorus-ligated rats (Shay's rat model); assay type: in vivo, Sprague Dawley (SD) rats; conditions: 5 h, male SD rats, 3 mg/kg/2 ml into the duodenum, five hours after the ligation, total gastric acid secretion vs control group
Experimental: 3) Inhibitory Effect on the Basal Gastric Acid Secretion in Pylorus-Ligated Rats
Assays for determining inhibitory effect of the compounds of the present invention on the basal gastric acid secretion was performed according to Shay's rat model (Shay, H., et al., 1945, gastroenterology, 5, p. 43-61). Male Sprague Dawley (SD) rats with a body weight in the range of 180˜220 g were divided into test (n=5) and control groups (n=5), and fasted for 18 hours with free access to water. Under isoflurane anesthesia, the abdomens of the rats were incised and then the pylorus was ligated. After the ligation, the control groups were administered with only 10% ethanol, 20% polyethylene glycol (PEG) 400, and 10% aqueous Cremophor solution through the duodenum, and the other groups were administered with test compounds suspended in 10% ethanol, 20% PEG 400, and 10% aqueous Cremophor solution at a concentration of 3 mg/kg/2 ml into the duodenum. Five hours after the ligation, the experimental animals were euthanized and their stomach contents were collected. The thus obtained contents were centrifuged at 4,000×g for 10 minutes, and the supernatant was recovered to obtain gastric juice therefrom. The amount of the gastric juice and its pH were measured. The acidity of the gastric juice was determined by 0.1 N-NaOH volume (ueq/mL) for automatic titration of gastric acid to pH 7.0. The total acid output was obtained by multiplying the gastric acidity by the amount of gastric juice. Inhibition Activity (%) of Test Compounds=(total gastric acid secretion in control group−total gastric acid secretion in groups treated with test compounds)/total gastric acid secretion in control group×100

T1 sequence (P19156 whole entry): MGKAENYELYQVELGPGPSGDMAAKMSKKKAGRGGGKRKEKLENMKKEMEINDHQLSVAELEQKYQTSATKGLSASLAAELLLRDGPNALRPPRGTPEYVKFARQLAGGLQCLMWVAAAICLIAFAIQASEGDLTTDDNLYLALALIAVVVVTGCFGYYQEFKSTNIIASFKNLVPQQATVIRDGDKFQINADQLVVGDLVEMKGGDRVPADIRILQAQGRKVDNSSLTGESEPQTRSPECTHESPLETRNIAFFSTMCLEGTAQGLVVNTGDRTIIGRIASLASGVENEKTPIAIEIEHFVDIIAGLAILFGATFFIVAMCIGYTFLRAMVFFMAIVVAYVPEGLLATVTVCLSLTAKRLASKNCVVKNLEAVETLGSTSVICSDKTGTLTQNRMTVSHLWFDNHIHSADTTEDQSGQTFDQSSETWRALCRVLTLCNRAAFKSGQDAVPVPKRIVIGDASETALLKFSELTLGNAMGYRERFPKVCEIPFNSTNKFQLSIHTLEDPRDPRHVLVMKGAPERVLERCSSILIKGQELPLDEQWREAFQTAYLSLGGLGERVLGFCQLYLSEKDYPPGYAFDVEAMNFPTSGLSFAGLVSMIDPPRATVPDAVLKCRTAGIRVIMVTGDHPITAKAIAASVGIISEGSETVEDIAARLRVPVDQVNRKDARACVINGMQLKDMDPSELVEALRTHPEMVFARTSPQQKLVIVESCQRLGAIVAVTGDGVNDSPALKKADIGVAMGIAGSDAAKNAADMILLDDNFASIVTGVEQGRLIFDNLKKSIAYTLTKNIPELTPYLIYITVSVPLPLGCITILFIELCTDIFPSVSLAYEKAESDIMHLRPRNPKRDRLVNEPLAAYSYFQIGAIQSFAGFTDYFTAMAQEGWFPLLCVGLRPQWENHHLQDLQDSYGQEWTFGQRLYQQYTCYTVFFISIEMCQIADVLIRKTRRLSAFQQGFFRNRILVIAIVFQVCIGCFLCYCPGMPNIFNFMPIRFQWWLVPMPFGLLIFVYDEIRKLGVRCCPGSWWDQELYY
T1 sequence (P18434 whole entry partner): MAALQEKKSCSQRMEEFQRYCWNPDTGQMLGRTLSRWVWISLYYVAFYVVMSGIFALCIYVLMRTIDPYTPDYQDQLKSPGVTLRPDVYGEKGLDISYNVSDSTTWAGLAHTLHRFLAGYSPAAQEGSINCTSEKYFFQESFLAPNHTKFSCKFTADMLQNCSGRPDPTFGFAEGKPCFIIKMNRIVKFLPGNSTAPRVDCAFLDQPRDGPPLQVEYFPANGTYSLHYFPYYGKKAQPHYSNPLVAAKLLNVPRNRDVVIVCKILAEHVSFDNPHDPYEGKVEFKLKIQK

| IC50 [1] [nM] | Structure (SMILES) | inhibition in vivo at 3 mg/kg [2] [%] |
| --- | --- | --- |
| 490 | CNCc1cn(S(=O)(=O)c2cccnc2)c2cc(Nc3ccc(OC(F)(F)F)cc3C)ccc12 [Example 53, N-(2-methyl-4-(trifluoromethoxy)phenyl)-3-((methylamino)methyl)-1-(pyridin-3-ylsulfonyl)-1H-indol-6-amine hydrochloride] | 45 |
| 420 | CNCc1cn(S(=O)(=O)c2cccnc2)c2cc(Nc3ccc(OC(F)(F)F)cc3Cl)ccc12 [Example 55, N-(2-chloro-4-(trifluoromethoxy)phenyl)-3-((methylamino)methyl)-1-(pyridin-3-ylsulfonyl)-1H-indol-6-amine hydrochloride] | 55 |
| 460 | CNCc1cn(S(=O)(=O)c2cccnc2)c2cc(Nc3ccc(OC(F)(F)F)cc3OC)ccc12 [Example 56, N-(2-methoxy-4-(trifluoromethoxy)phenyl)-3-((methylamino)methyl)-1-(pyridin-3-ylsulfonyl)-1H-indol-6-amine hydrochloride] | 82 |
| 310 | CNCc1cn(S(=O)(=O)c2cccnc2)c2cc(Nc3ccc(C)c(F)c3F)ccc12 [Example 65, N-(2,3-difluoro-4-methylphenyl)-3-((methylamino)methyl)-1-(pyridin-3-ylsulfonyl)-1H-indol-6-amine hydrochloride] | 42 |
| 610 | CNCc1cn(S(=O)(=O)c2cccnc2)c2cc(Nc3cc(F)c(C)cc3F)ccc12 [Example 72, N-(2,5-difluoro-4-methylphenyl)-3-((methylamino)methyl)-1-(pyridin-3-ylsulfonyl)-1H-indol-6-amine hydrochloride] | 49 |
| 1590 | CNCc1cn(S(=O)(=O)c2cccnc2)c2cc(Nc3cccnc3OC)ccc12 [Example 108, N-(2-methoxypyridin-3-yl)-3-((methylamino)methyl)-1-(pyridin-3-ylsulfonyl)-1H-indol-6-amine hydrochloride] | 49 |
| 420 | CNCc1cn(S(=O)(=O)c2cccnc2)c2cc(Nc3ccc(Cl)nc3OC)ccc12 [Example 120, N-(6-chloro-2-methoxypyridin-3-yl)-3-((methylamino)methyl)-1-(pyridin-3-ylsulfonyl)-1H-indol-6-amine hydrochloride] | 46 |
| 350 | CNCc1cn(S(=O)(=O)c2cccnc2)c2cc(Nc3ccc(OC)nc3Cl)ccc12 [Example 123, N-(2-chloro-6-methoxypyridin-3-yl)-3-((methylamino)methyl)-1-(pyridin-3-ylsulfonyl)-1H-indol-6-amine hydrochloride] | 40 |
| 1060 | CNCc1cn(S(=O)(=O)c2cccnc2)c2cc(Nc3ccc(C(F)(F)F)nc3Cl)ccc12 [Example 125, N-(2-chloro-6-(trifluoromethyl)pyridin-3-yl)-3-((methylamino)methyl)-1-(pyridin-3-ylsulfonyl)-1H-indol-6-amine hydrochloride] | 45 |
| 770 | CNCc1cn(S(=O)(=O)c2cccnc2)c2cc(Nc3ccnc(Cl)c3Br)ccc12 [Example 133, N-(3-bromo-2-chloropyridin-4-yl)-3-((methylamino)methyl)-1-(pyridin-3-ylsulfonyl)-1H-indol-6-amine hydrochloride] | 40 |
| 120 | CNCc1cn(S(=O)(=O)c2cccc(F)c2)c2cc(Nc3ccc(F)cc3C)ccc12 [Example 138, N-(4-fluoro-2-methylphenyl)-1-((3-fluorophenyl)sulfonyl)-3-((methylamino)methyl)-1H-indol-6-amine hydrochloride] | 55 |
| 180 | CNCc1cn(S(=O)(=O)c2cccc(F)c2)c2cc(Nc3ccc(OC)cc3F)ccc12 [Example 139, N-(2-fluoro-4-methoxyphenyl)-1-((3-fluorophenyl)sulfonyl)-3-((methylamino)methyl)-1H-indol-6-amine hydrochloride] | 40 |
| 390 | CNCc1cn(S(=O)(=O)c2cccc(F)c2)c2cc(Nc3ccc(Cl)nc3OC)ccc12 [Example 141, N-(6-chloro-2-methoxypyridin-3-yl)-1-((3-fluorophenyl)sulfonyl)-3-((methylamino)methyl)-1H-indol-6-amine hydrochloride] | 51 |
| 120 | CNCc1cn(S(=O)(=O)c2cccc(F)c2)c2cc(Nc3ccc(Cl)nc3Cl)ccc12 [Example 142, N-(2,6-dichloropyridin-3-yl)-1-((3-fluorophenyl)sulfonyl)-3-((methylamino)methyl)-1H-indol-6-amine hydrochloride] | 42 |
| 290 | CNCc1cn(S(=O)(=O)c2cccc(F)c2)c2cc(Nc3ccc(Cl)nc3C(F)(F)F)ccc12 [Example 143, N-(6-chloro-2-(trifluoromethyl)pyridin-3-yl)-1-((3-fluorophenyl)sulfonyl)-3-((methylamino)methyl)-1H-indol-6-amine hydrochloride] | 53 |
| 380 | CNCc1cn(S(=O)(=O)c2cccc(F)c2)c2cc(Nc3ccc(OC)nc3Cl)ccc12 [Example 144, N-(2-chloro-6-methoxypyridin-3-yl)-1-((3-fluorophenyl)sulfonyl)-3-((methylamino)methyl)-1H-indol-6-amine hydrochloride] | 53 |
| 170 | CNCc1cn(S(=O)(=O)c2cccc(F)c2)c2cc(Nc3ccc(C(F)(F)F)nc3Cl)ccc12 [Example 145, N-(2-chloro-6-(trifluoromethyl)pyridin-3-yl)-1-((3-fluorophenyl)sulfonyl)-3-((methylamino)methyl)-1H-indol-6-amine hydrochloride] | 45 |
| 10 | CNCc1cn(S(=O)(=O)c2cccc(Cl)c2)c2cc(Nc3ccc(C)cc3OC(F)(F)F)ccc12 [Example 148, 1-((3-chlorophenyl)sulfonyl)-N-(4-methyl-2-(trifluoromethoxy)phenyl)-3-((methylamino)methyl)-1H-indol-6-amine hydrochloride] | 45 |
| 260 | CNCc1cn(S(=O)(=O)c2cccc(Cl)c2)c2cc(Nc3ccc(OC)cc3F)ccc12 [Example 153, 1-((3-chlorophenyl)sulfonyl)-N-(2-fluoro-4-methoxyphenyl)-3-((methylamino)methyl)-1H-indol-6-amine hydrochloride] | 42 |
| 290 | CNCc1cn(S(=O)(=O)c2cccc(Cl)c2)c2cc(Nc3ccc(OC)nc3Cl)ccc12 [Example 160, N-(2-chloro-6-methoxypyridin-3-yl)-1-((3-chlorophenyl)sulfonyl)-3-((methylamino)methyl)-1H-indol-6-amine hydrochloride] | 57 |
| 390 | CNCc1cn(S(=O)(=O)c2cccc(OC(F)F)c2)c2cc(Nc3ccc(OC)nc3Cl)ccc12 [Example 182, N-(2-chloro-6-methoxypyridin-3-yl)-1-((3-(difluoromethoxy)phenyl)sulfonyl)-3-((methylamino)methyl)-1H-indol-6-amine hydrochloride] | 44 |
| 370 | CNCc1cn(S(=O)(=O)c2cncc(F)c2)c2cc(Nc3ccc(C)cc3F)ccc12 [Example 210, N-(2-fluoro-4-methylphenyl)-1-((5-fluoropyridin-3-yl)sulfonyl)-3-((methylamino)methyl)-1H-indol-6-amine hydrochloride] | 43 |
| 90 | CNCc1cn(S(=O)(=O)c2cncc(F)c2)c2cc(Nc3ccc(C)cc3Cl)ccc12 [Example 211, N-(2-chloro-4-methylphenyl)-1-((5-fluoropyridin-3-yl)sulfonyl)-3-((methylamino)methyl)-1H-indol-6-amine hydrochloride] | 43 |
| 180 | CNCc1cn(S(=O)(=O)c2cncc(F)c2)c2cc(Nc3ccc(F)cc3C)ccc12 [Example 212, N-(4-fluoro-2-methylphenyl)-1-((5-fluoropyridin-3-yl)sulfonyl)-3-((methylamino)methyl)-1H-indol-6-amine hydrochloride] | 56 |
| 160 | CNCc1cn(S(=O)(=O)c2cncc(F)c2)c2cc(Nc3ccc(F)cc3Cl)ccc12 [Example 213, N-(2-chloro-4-fluorophenyl)-1-((5-fluoropyridin-3-yl)sulfonyl)-3-((methylamino)methyl)-1H-indol-6-amine hydrochloride] | 50 |
